Measurements as given in the supplement of paper PMC10307832.

Key:
Test in all cases: relative viability (nuclei count vs DMSO), 5 days (fraction); higher = more cells survive
RO-3306 + Foretinib = compound: C1=CC2=C(C=CC(=C2)C=C3C(=O)NC(=NCC4=CC=CS4)S3)N=C1 [RO-3306] + COc1cc2c(Oc3ccc(NC(=O)C4(C(=O)Nc5ccc(F)cc5)CC4)cc3F)ccnc2cc1OCCCN1CCOCC1 [Foretinib] (partner 0.25 µM)
In short: (§1)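 Dosing by pin tool came one day after lung cancer cell lines were seeded in 1536-well plates, using either one drug or a fixed anchor-drug dose plus five library-drug doses (not always all listed) in √10 steps. After 5 days, nuclei were counted on 4× images. Relative viability is treated-well nuclei count divided by vehicle-well nuclei count, and values are medians of duplicate plates.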

RO-3306 + Tozasertib = compound: C1=CC2=C(C=CC(=C2)C=C3C(=O)NC(=NCC4=CC=CS4)S3)N=C1 [RO-3306] + Cc1cc(Nc2cc(N3CCN(C)CC3)nc(Sc3ccc(NC(=O)C4CC4)cc3)n2)n[nH]1 [Tozasertib] (partner 0.1 µM)
In short: as §1

RO-3306 + Linsitinib = compound: C1=CC2=C(C=CC(=C2)C=C3C(=O)NC(=NCC4=CC=CS4)S3)N=C1 [RO-3306] + C[C@]1(O)C[C@@H](c2nc(-c3ccc4ccc(-c5ccccc5)nc4c3)c3c(N)nccn32)C1 [Linsitinib] (partner 1 µM)
In short: as §1

[1] = compound: O=S(=O)(c1ccccc1)N(CC(F)(F)F)c1ccc(C(O)(C(F)(F)F)C(F)(F)F)cc1 + Nc1ncn([C@H]2C[C@H](O)[C@@H](CO)O2)c(=O)n1 [Decitabine] (partner 2 µM)
In short: as §1

Cell Line	relative viability (RO-3306 + Foretinib; first compound 0.01 µM)	relative viability (RO-3306 + Foretinib; first compound 0.03162 µM)	relative viability (RO-3306 + Foretinib; first compound 0.1 µM)	relative viability (RO-3306 + Foretinib; first compound 0.3162 µM)	relative viability (RO-3306 + Foretinib; first compound 1 µM)	relative viability (RO-3306 + Tozasertib; first compound 0.01 µM)	relative viability (RO-3306 + Tozasertib; first compound 0.03162 µM)	relative viability (RO-3306 + Tozasertib; first compound 0.1 µM)	relative viability (RO-3306 + Tozasertib; first compound 0.3162 µM)	relative viability (RO-3306 + Tozasertib; first compound 1 µM)	relative viability (RO-3306 + Linsitinib; first compound 0.01 µM)	relative viability (RO-3306 + Linsitinib; first compound 0.03162 µM)	relative viability (RO-3306 + Linsitinib; first compound 0.1 µM)	relative viability (RO-3306 + Linsitinib; first compound 0.3162 µM)	relative viability (RO-3306 + Linsitinib; first compound 1 µM)	relative viability ([1]; first compound 0.8 µM)	relative viability ([1]; first compound 2.53 µM)	relative viability ([1]; first compound 8 µM)
NCI-H441	0.911	0.937	0.944	1.07	0.937	0.587	0.527	0.604	0.538	0.481	0.53	0.385	0.479	0.554	0.405	0.238	0.212	0.21
HCC-366	0.91	0.96	0.942	0.884	0.931	0.123	0.0945	0.0992	0.0958	0.0525	0.531	0.405	0.594	0.886	0.569	0.394	0.376	0.242
NCI-H2085	0.866	0.766	0.78	1.11	0.94	0.763	0.775	0.78	0.712	0.641	0.882	0.755	0.884	0.866	0.84	0.508	0.539	0.501
SW 1573	0.89	0.879	0.934	0.993	0.887	0.198		0.17	0.175	0.168	0.869	0.721	0.805	0.762	0.727	0.542	0.543	0.541
NCI-H1299	1.17	1.1	1.15	1.14	1.17						1.1	0.913	1.03	1.12	1.08			
H3255	0.798	0.711	0.758	0.848	0.898	0.621	0.372	0.611	0.692	0.466	1.17	0.814	1.01	0.918	0.945	0.567	0.473	0.642
NCI-H2023	1.17	0.71	0.818	0.702	0.943	0.401	0.327	0.254	0.241	0.308	0.607	0.566	0.637	0.798	0.585	0.221	0.233	0.221
HOP-62	1.2	1.07	1.05	1.05	1.1	0.346	0.304	0.353	0.39	0.377	0.951	0.985	0.892	0.978	0.973	0.252	0.193	0.239
LC-2-ad	0.877	0.804	0.941	0.967	0.942	0.433	0.404	0.44	0.485	0.404	0.902	0.757	0.813	0.833	0.817	0.825	0.803	0.709
NCI-H2347	0.982	0.503	0.868	0.702	0.741	0.616	0.616	0.628	0.525	0.514	1.01	0.877	0.999	1.01	0.795	0.657	0.614	0.66
NCI-H1651	0.986	0.723	0.879	0.8	0.823	0.713	0.589	0.755	0.57	0.446	0.956	0.927	0.922	1.18	0.977	0.793	0.668	0.517
COR-L23	0.958	0.941	0.966	1.13	1.08	0.238	0.175	0.178	0.169	0.166	1.02		0.866	0.938	1.06	0.428	0.439	0.461
ABC-1	1.06	0.975	0.999	1.1	1.06	0.145	0.172	0.222	0.177	0.14	0.906	0.58	0.697	0.907	0.792		1.02	1.05
NCI-H1755	0.939	0.973	0.921	0.927	0.936	0.577	0.688	0.514	0.547	0.554	1.05	1	1.02	0.995	1.09	0.781	0.765	0.829
NCI-H2170	0.929	0.925	0.98	1.11	0.985	0.689	0.933	0.663	0.804	0.679						0.496	0.439	0.475
